Series [1] relates to LNCaP, human androgen dependent prostate cancer cells. As to the kind of experiment: LNCaP cell proliferation, [3H]thymidine incorporation assay. The series is classed as cell-based. Conditions: LNCaP cells stimulated by 1 nM DHT, treated 3 days; for cell growth inhibition (thymidine incorporation), phytosterol alone: phytosterol alone 0-50 μM. On the procedure:
In these experiments, LNCaP cells were preincubated for 24 hours in 0.5% serum and then growth (quantified by measuring thymidine incorporation) was stimulated by 1 nM DHT. Stimulated cells were treated for 3 days with the indicated concentration of the phytosterols alone, or in combination with 0.4 μM lycopene. Data presented are the mean±SE of 2-3 independent experiments performed in quadruplicates.
Cell culture and cell proliferation assay: LNCaP, human androgen dependent prostate cancer cells, were purchased from American Type Culture Collection (Rockwell, Md.). Cells were grown in RPMI1640 containing 0.6 μg/ml insulin. All culture media were supplemented with L-glutamine (2 mM), penicillin (100 U/ml), streptomycin (0.1 mg/ml), nystatin (12.5 μg/ml), and 10% FCS. Cells were seeded in medium containing 3% FCS or 3% DCC phenol red free medium and 10 mM HEPES onto 96- and 6-multiwell plates (4-7×10^3 and 1.7×10^5 cells/well, respectively). One day later, the medium was changed to 0.5% FCS or 0% medium for an additional one day of incubation. Then the medium was changed to one containing the micronutrients (phytosterols, carotenoids, phospholipids, etc.) at the indicated concentrations and incubation was continued for 1-3 days. In order to assure that the agent was continuously present during prolonged incubation, the medium was replaced daily with one containing fresh carotenoids. Lycopene was dissolved in tetrahydrofuran at a concentration of 2 mM and stored at −20° C. Immediately before the experiment, the stock solution was added to the cell culture medium. The final concentration of lycopene in the medium was measured by spectrophotometry after extraction in 2-propanol and n-hexane:dichloromethane [3H]thymidine incorporation assay was performed in 96-multiwell plates. Cells were incubated with 1.25-2.50 uCi/well of [3H]thymidine (specific radioactivity 5 mCi/mmol in μCi/well) for one to four hours. The nucleotide incorporation was stopped by addition of unlabeled thymidine (0.5 μmol). The cells were then trypsinized and collected on a glass-fiber filter using a cell harvester (Inotech). Radioactivity was determined by a radioactive image analyzer (BAS 1000, Fuji).
All procedures were performed under dim light in order to prevent carotenoid degradation.
FIGS. 1A-1E. LNCaP cell were preincubated for 24 hours in 0.5% serum and then growth (thymidine incorporation) was stimulated by 1 nM DHT. Stimulated cells were treated for 3 days with the indicated concentrations of the phytosterols alone, or in combination with 0.4 μM Lycopene. Data presented are the mean±SE of 2-3 independent experiments performed in quadruplicates.
For orientation: Uptake of a labelled nucleoside into DNA is a usual measure of proliferation.

The next series deals with HT-29 human colon cancer. The note with it: HT-29, 16 μM; cited from earlier work.
Series [2] has as its system LNCaP human prostate cancer. Conditions: 16 μM; cited from earlier work.
The test system of series [3] is MDA-MB-231 human breast cancer. Conditions: MDA-MB-231, 16 μM; cited from earlier work.
Series [4] has as its system MCF-7 human breast cancer. The note with it: MCF-7, 0.001 to 150 μM; cited from earlier work.
Series [5] has as its system phorbol esters (PMA)-stimulated macrophages (RAW 264.7 cells). The note with it: cited from earlier work.
For series [6] the following is noted: in animals; cited from earlier work.
For series [7] the following is noted: in vivo; cited from earlier work.
The mark [8] stands for this setting: RAW 264.7, effects 3-6 hours after preincubation.

Regarding `CC[C@H](CC[C@@H](C)[C@H]1CC[C@H]2[C@@H]3CC=C4C[C@@H](O)CC[C@]4(C)[C@H]3CC[C@]12C)C(C)C` [β-sitosterol], the “cell growth inhibition (thymidine incorporation), phytosterol alone” value (“cell growth inhibition … phytosterol alone” for short) in series [1] is “inhibited prostate cancer cell proliferation in a dose dependent manner”. Also, the growth result with HT-29 human colon cancer is reported as “inhibition”; in series [2], “inhibition;”; in series [3] it was “inhibition”; in series [4], “increase”. For the same compound, the PSA levels entry in series [2] is “reduced PSA”. The “H2O2 production induced by PMA” value in series [5] (setting [8]) was “decrease”. The “O2(−) production induced by PMA” value in series [5] (setting [8]) was “decrease”. For the same compound, the “NO release induced by PMA” value in series [5] (RAW 264.7) is recorded as “reduced”. For the same compound, the “inducible nitric oxide synthase (iNOS) levels” value in series [5] (RAW 264.7) is “impairment”.
For `CC(C)[C@H](C)CC[C@@H](C)[C@H]1CC[C@H]2[C@@H]3CC=C4C[C@@H](O)CC[C@]4(C)[C@H]3CC[C@]12C` [Campesterol], the “cell growth inhibition … phytosterol alone” value in series [1] is “did not have any effect on cell growth inhibition”. In series [3], the growth result is reported as “unchanged”. Also, in series [6], the intestinal absorption entry is on record as “better absorbed than β-sitosterol”.
For the compound `CC(C)CCC[C@@H](C)[C@H]1CC[C@H]2[C@@H]3CC=C4C[C@@H](O)CC[C@]4(C)[C@H]3CC[C@]12C` [cholesterol, reference compound], in series [3], the growth entry was “unchanged”. Moreover, the absorption in series [7] is reported as 35-70%.
`CC[C@H](/C=C/[C@@H](C)[C@H]1CC[C@H]2[C@@H]3CC=C4C[C@@H](O)CC[C@]4(C)[C@H]3CC[C@]12C)C(C)C` [Stigmasterol]: in series [1], the “cell growth inhibition … phytosterol alone” value is recorded as “did not have any effect on cell growth inhibition”. Further, in series [6], the intestinal absorption entry was “only absorbed minimally”.
`CC(C)=CCC/C(C)=C/C=C/C(C)=C/C=C/C(C)=C/C=C/C=C(C)/C=C/C=C(C)/C=C/C=C(\C)CCC=C(C)C` [lycopene]: in series [1] (0.4 μM lycopene alone), the “cell growth inhibition (thymidine incorporation), lycopene alone” value is “did not inhibit proliferation”.

(Values after patent publication US8460718B2, “Synergistic compositions and methods” (LycoRed Ltd., priority 2011, dated 2013).)
